ChEMBL document CHEMBL2029277, “Discovery of XL413, a potent and selective CDC7 inhibitor” (Bioorg Med Chem Lett, 2012)

What was measured:
[1] = target: T1, Cell division cycle 7-related protein kinase (Homo sapiens, UniProt O00311); test: Inhibition of N-terminus Myc-tagged human CDC7 expressed in Escherichia coli by chemiluminescence assay in presence of ATP
[2] = target: Casein kinase II alpha/beta (Homo sapiens, UniProt P68400); test: Inhibition of human tertrameric CK2alphabeta holoenzyme using casein as substrate after 1 to 2 hrs by chemiluminescence assay in presence of 2 uM ATP; type: protein-complex assay
[3] = target: Serine/threonine-protein kinase pim-1 (Homo sapiens, UniProt P11309); test: Inhibition of N-terminus His-tagged human PIM1 expressed in Escherichia coli using AKRRRLSA as substrate after 1 to 2 hrs by chemiluminescence assay
[4] = target: T1, Cell division cycle 7-related protein kinase; test: Inhibition of CDC7 in human MDA-MB-231T cells assessed as inhibition of MCM2 phosphorylation at Ser53 after 4 hrs; type: cell-based

T1 sequence (O00311 whole entry): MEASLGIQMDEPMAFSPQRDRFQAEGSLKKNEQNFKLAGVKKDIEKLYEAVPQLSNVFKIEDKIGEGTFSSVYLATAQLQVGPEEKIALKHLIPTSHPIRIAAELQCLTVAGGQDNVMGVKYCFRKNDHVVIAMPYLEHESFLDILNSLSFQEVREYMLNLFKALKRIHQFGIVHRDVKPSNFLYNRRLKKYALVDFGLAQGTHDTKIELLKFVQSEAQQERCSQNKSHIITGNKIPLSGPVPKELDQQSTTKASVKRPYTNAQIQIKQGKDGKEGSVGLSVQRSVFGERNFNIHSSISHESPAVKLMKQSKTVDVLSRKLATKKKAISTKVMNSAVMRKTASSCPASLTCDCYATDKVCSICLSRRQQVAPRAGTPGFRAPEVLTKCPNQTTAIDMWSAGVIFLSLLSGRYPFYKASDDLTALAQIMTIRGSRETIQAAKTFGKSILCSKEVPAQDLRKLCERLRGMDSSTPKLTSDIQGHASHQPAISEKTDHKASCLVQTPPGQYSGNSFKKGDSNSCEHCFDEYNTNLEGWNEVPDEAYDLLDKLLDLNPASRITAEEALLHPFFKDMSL
Chain of Casein kinase II alpha/beta (P67870 whole entry): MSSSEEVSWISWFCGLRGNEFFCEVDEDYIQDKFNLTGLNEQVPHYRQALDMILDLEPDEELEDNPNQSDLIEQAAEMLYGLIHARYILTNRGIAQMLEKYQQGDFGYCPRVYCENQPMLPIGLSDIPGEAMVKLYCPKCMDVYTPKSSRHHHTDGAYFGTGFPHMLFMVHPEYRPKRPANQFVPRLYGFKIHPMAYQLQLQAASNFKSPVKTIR
Chain of Casein kinase II alpha/beta (P68400 whole entry): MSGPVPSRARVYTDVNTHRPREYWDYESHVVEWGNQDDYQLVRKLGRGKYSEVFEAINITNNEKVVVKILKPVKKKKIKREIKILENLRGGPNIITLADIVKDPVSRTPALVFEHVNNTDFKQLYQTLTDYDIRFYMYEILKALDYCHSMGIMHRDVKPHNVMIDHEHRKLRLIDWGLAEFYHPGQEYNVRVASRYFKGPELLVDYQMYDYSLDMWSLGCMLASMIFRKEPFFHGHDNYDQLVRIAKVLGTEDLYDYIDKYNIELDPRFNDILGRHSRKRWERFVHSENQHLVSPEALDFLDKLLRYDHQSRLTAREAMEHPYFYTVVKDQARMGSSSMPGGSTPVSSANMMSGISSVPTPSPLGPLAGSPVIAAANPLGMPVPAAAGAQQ
Chain of Serine/threonine-protein kinase pim-1 (P11309 whole entry): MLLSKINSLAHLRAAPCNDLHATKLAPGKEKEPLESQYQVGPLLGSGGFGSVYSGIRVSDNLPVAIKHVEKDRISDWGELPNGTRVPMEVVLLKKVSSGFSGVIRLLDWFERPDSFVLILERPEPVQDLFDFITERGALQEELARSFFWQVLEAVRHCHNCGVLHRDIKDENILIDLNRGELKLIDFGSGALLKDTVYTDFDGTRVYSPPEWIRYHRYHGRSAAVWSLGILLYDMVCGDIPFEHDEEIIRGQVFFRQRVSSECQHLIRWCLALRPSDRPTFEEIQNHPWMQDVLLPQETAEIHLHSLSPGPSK

Row | Compound | IC50 [1] [nM] | IC50 [2] [nM] | IC50 [3] [nM] | IC50 [4] [nM]
1 | O=c1[nH]cnc2c1oc1ccc(Br)cc12 | 2000 | 1500 |  | 
2 | O=c1[nH]c([C@@H]2C[C@@H](F)CN2)nc2c1oc1ccc(Cl)cc12 | 4 | 752 | 65 | 167
3 | O=c1[nH]c([C@@H]2C[C@H](F)CN2)nc2c1oc1ccc(Br)cc12 | 11 | 3620 | 11 | 566
